According to patent publication US11291947B2, “Composition for removing sulfur-containing compound” (KURARAY CO., LTD., priority 2016, dated 2022):
Like-named read-outs stand apart in the source and are kept apart here.

Experiments:
[1] = type: physicochemical; details: pH 1.7
Method: Each of SAL and acrolein was dissolved in 0.5 mol/L of phosphoric acid buffer solutions having a pH different from each other, thereby preparing 0.1 wt % solutions. 50 mL of each of the solutions was charged in a sample vial in a nitrogen atmosphere and stored at 23±2° C. On the occasion when the content of each of SAL and acrolein at the time of preparation was defined as 100%, a change of the content ratio was observed according to the absolute calibration curve by means of high-performance liquid chromatography analysis.
[Preparation of Phosphoric Acid Buffer Solution]
pH 1.7: 4.9 g of 75% phosphoric acid and 7.8 g of sodium dihydrogen phosphate dihydrate were dissolved in 200 mL of distilled water.
pH 6.2: 7.8 g of sodium dihydrogen phosphate dihydrate and 7.1 g of disodium hydrogen phosphate were dissolved in 200 mL of distilled water.
pH 8.1: 0.3 g of sodium dihydrogen phosphate dihydrate and 13.9 g of disodium hydrogen phosphate were dissolved in 200 mL of distilled water.
[High-Performance Liquid Chromatography Analysis]
Analysis Instrument: Prominence System (Available from Shimadzu Corporation)
Column used: Cadenza CD-C18 (length: […], inner diameter: 4.6 mm)
Developing solution: H2O/MeOH=45/55 (volume ratio), H3PO4=1 mol/L

[2] = cited from earlier work
[3] = Hydrogen sulfide removal in distilled water (autoclave); details: distilled water, 5,000 ppm added, 80° C., 5 hours
Method: 20 g of distilled water was put into a 100-mL autoclave equipped with a thermometer and a stirrer, and pressurized up to 0.3 MPa with a mixed gas having a composition of 1 vol % of hydrogen sulfide and 99 vol % of nitrogen introduced thereinto. This was stirred until the hydrogen sulfide concentration in the vapor phase part became constant, and then the hydrogen sulfide concentration in the vapor phase part in the autoclave was measured with a Kitagawa gas detector (here, a […] available from Komyo Rikagaku Kogyo K.K. was attached to the gas collector “AP-20”), and was 7,500 ppm by volume. Next, SAL was added thereto in an amount to be 5,000 ppm relative to the distilled water. The amount of SAL added was 1.19 mmol, and the amount of hydrogen sulfide existing in the apparatus was 0.10 mmol. Subsequently, the apparatus was heated up to 80° C. with stirring at 800 rpm to continue the reaction for 5 hours. After the reaction, the system was cooled down to room temperature, and the hydrogen sulfide concentration in the vapor phase part was measured and was 5,000 ppm by volume. The removal rate was 33%.
The same test as in Example 2 was carried out except that acrolein was used in place of SAL. After the reaction, the hydrogen sulfide concentration in the vapor phase part was measured and was 5,000 ppm by volume. The removal rate was 33%.

[4] = type: physicochemical
Method: 50 mL of each of SAL and acrolein was charged in 50-mL three-necked flask, and the contents were subjected to temperature rise to 50° C. in a nitrogen atmosphere. On the occasion when the content of each of SAL and acrolein immediately after the temperature rise was defined as 100%, a change of the content ratio was observed according to the calibration curve method by means of gas chromatography with an internal standard.
[Gas Chromatography Analysis]
Analysis Instrument: GC-14A (Available from Shimadzu Corporation) Detector: FID (Hydrogen Flame Ionization Detector)
Column used: DB-1701 (length: 50 m, film thickness: 1 μm, inner diameter: 0.32 mm) (available from Agilent Technologies)
Analysis conditions: Injection temperature: 250° C., detection temperature: 250° C.
Temperature rise conditions: 70° C.→(temperature rise at 5° C./min)→250° C.
Internal standard substance: Diglyme (diethylene glycol dimethyl ether)

[5] = test system: Rat; details: versus acrolein; cited from earlier work
[6] = Hydrogen sulfide removal in kerosene (three-neck flask); details: 20 g kerosene, 1.5 g added, room temperature, 5 hours
Method: 20 g of kerosene (available from FUJIFILM Wako Pure Chemical Corporation) was put into a 50-mL three-neck flask, and a mixed gas having a composition of 1 vol % of hydrogen sulfide and 99 vol % of nitrogen was made to circulate therein at a flow rate of 50 mL/min to thereby purge the vapor in the three-neck flask with stirring at 800 rpm. After 2 hours, the circulation of the mixed gas was stopped, then the three-neck flask was sealed up, and the hydrogen sulfide concentration in the vapor phase part in the three-neck flask was measured with a Kitagawa gas detector and was 8,200 ppm by volume. Next, 1.5 g of SAL was added thereto and reacted for 5 hours at room temperature with stirring the apparatus at 800 rpm. After the reaction, the hydrogen sulfide concentration in the vapor phase part in the three-neck flask was measured and was 5,300 ppm by volume. The removal rate was 35%.
After the reaction, the hydrogen sulfide concentration in the vapor phase part in the three-neck flask was measured and was 6,600 ppm by volume. The removal rate was 20%.

[7] = 50° C., nitrogen atmosphere, 0 hour (defined as 100%)
[8] = 50° C., nitrogen atmosphere, 2 hours elapsed
[9] = 50° C., nitrogen atmosphere, 4 hours elapsed
[10] = 50° C., nitrogen atmosphere, 6 hours elapsed
[11] = 50° C., nitrogen atmosphere, 10 hours elapsed

Row | SMILES | pH stability (comparison in words) [1] | Fire Service Act water solubility class [2] | removal rate [3] [%] | thermal stability (comparison in words) [4] | content ratio [4, 7] [%] | content ratio [4, 8] [%] | content ratio [4, 9] [%] | content ratio [4, 10] [%] | content ratio [4, 11] [%] | toxicity and safety (comparison in words) [5] | removal rate [6] [%] | ratio lost ([4]; 50° C., nitrogen atmosphere, after 10 hours) [%]
1 | CC(C)=CC=O [SAL, 3-methyl-2-butenal] | extremely high in the pH stability as compared with acrolein | water-insoluble | 33 | extremely high in the thermal stability as compared with acrolein | 100.0 | 100.0 | 100.0 | 100.0 | 99.9 | extremely low in the toxicity and safe as compared with acrolein | 35 | 
2 | C=CC=O [Acrolein, acrolein, reference compound] |  | water-insoluble | 33 |  | 100.0 | 99.5 | 98.3 | 98.1 | 96.6 |  |  | 3.4
3 | CC(C)=CCCC(C)=CC=O [Citral, 3,7-dimethyl-2,6-octadienal] |  |  |  |  |  |  |  |  |  | extremely low in the toxicity and safe as compared with acrolein | 20 | 
